Source: patent publication EP2014168A1, “Insecticidal heterocyclic compounds” (priority 2007, dated 2009)
Each block holds one compound with its values, some of them ahead of it.

Columns and labels:
[1] = system: Myzus persicae; assay: Myzus test - oral; type: in vivo; settings: read-out: Wirkung
Description: Lösungsmittel: 80,0 Gewichtsteile Aceton
Zur Herstellung einer zweckmäßigen Wirkstoffzubereitung vermischt man 1 Gewichtsteil Wirkstoff mit den angegebenen Mengen Lösungsmittel und verdünnt das Konzentrat mit Wasser auf die gewünschte Konzentration.
Gefäße werden mit allen Stadien der Grünen Pfirsichblattlaus (Myzus persicae) besetzt, durch saugen an der Wirkstoffzubereitung der gewünschten Konzentration wird behandelt.
Nach der gewünschten Zeit wird die Wirkung in % bestimmt. Dabei bedeutet 100 %, dass alle Blattläuse abgetötet wurden; 0 % bedeutet, dass keine Blattläuse abgetötet wurden.

[2] = physchem; settings: formic acid
[3] = system: Myzus persicae; assay: Myzus test (spray treatment); type: in vivo; settings: foliar, read-out: Wirkung
Description: Myzus-Test (Spritzbehandlung)
Zur Herstellung einer zweckmäßigen Wirkstoffzubereitung vermischt man 1 Gewichtsteil Wirkstoff mit den angegebenen Mengen Lösungsmittel und Emulgator und verdünnt das Konzentrat mit emulgatorhaltigem Wasser auf die gewünschte Konzentration.
Chinakohlblattscheiben (Brassica pekinensis), die von allen Stadien der Grünen Pfirsichblattlaus (Myzus persicae) befallen sind, werden mit einer Wirkstoffzubereitung der gewünschten Konzentration gespritzt.
Nach der gewünschten Zeit wird die Wirkung in % bestimmt. Dabei bedeutet 100 %, dass alle Blattläuse abgetötet wurden; 0 % bedeutet, dass keine Blattläuse, abgetötet wurden.

[4] = logP determination (acidic, formic acid)
[5] = 500 g/ha, oral uptake by sucking on the active compound preparation, 100 % = all aphids killed
[6] = 500 g/ha, spray on infested Brassica pekinensis leaf discs, 100 % = all aphids killed

SMILES: CNC(=S)N1CCOC1=NC1CCc2cc(C)cnc21 (stereo not shown) [Beispiel 44]
- mortality at 500 g/ha [1, 5]: ≥ 80%

SMILES: c1cc2c(s1)C(NC1=NCCO1)CC2 (stereo not shown) [Beispiel 2, N-(5,6-Dihydro-4H-cyclopenta[b]thien-6-yl)-4,5-dihydro-1,3-oxazol-2-amin]
- logP [2]: 0.42
- mortality at 500 g/ha ([3]; in Brassica rapa): ≥ 80%

SMILES: CNC(=S)N1CCOC1=NC1CCc2cc(Cl)sc21 (stereo not shown) [Beispiel 19]
- mortality at 500 g/ha [3, 6]: ≥ 80%

SMILES: Clc1cc2c(s1)C(N=C1NCCO1)CC2 (stereo not shown) [Beispiel 18]
- mortality at 500 g/ha [3, 6]: ≥ 80%

SMILES: Cc1cnc2c(c1)CCC2N=C1NCCO1 (stereo not shown) [Beispiel 43]
- mortality at 500 g/ha ([1]; po): ≥ 80%

SMILES: CCOC(=O)CNC(=S)N1CCOC1=NC1CCc2cc(C)cnc21 (stereo not shown) [Beispiel 47]
- mortality at 500 g/ha [1, 5]: ≥ 80%

SMILES: CCOC(=O)CNC(=S)N1CCOC1=NC1CCc2ccsc21 (stereo not shown) [Beispiel 14]
- mortality at 500 g/ha [3, 6]: ≥ 80%

SMILES: CNC(=S)N1CCOC1=NC1CCc2ccsc21 (stereo not shown) [Beispiel 7]
- mortality at 500 g/ha [3, 6]: ≥ 80%

SMILES: O=C(NCCCl)NC1CCc2ccsc21 (stereo not shown) [Beispiel 1, 1-(2-Chloroethyl)-3-(5,6-dihydro-4H-cyclopenta[b]thien-6-yl)-harnstoff]
- logP ([4]; formic acid): 1.77

- logP ([4]; acidic): 1.03
SMILES: COCCNC(=S)N1CCO/C1=N\C1CCc2ncccc21 (stereo not shown) [Beispiel 6, (2Z)-2-(6,7-Dihydro-5H-cyclopenta[b]pyridin-5-ylimino)-N-(2-methoxyethyl)-1,3-oxazolidine-3-carbothioamid]
- mortality at 500 g/ha [3, 6]: ≥ 80%

SMILES: CNC(=S)N1CCOC1=NC1CCc2ncccc21 (stereo not shown) [Beispiel 30]
- mortality at 500 g/ha [3, 6]: ≥ 80%

SMILES: O=C(NCCCl)NC1CCc2ncccc21 (stereo not shown) [Beispiel 4, 1-(2-Chloroethyl)-3-(6,7-dihydro-5H-cyclopenta[b]pyridin-5-yl)-harnstoff]
- logP ([4]; acidic): 0.23

- logP ([4]; acidic): 3.32
SMILES: COCCNC(=S)N1CCO/C1=N\C1CCc2ccsc21 (stereo not shown) [Beispiel 3, (2Z)-2-(5,6-Dihydro-4H-cyclopenta[b]thien-6-ylimino)-N-(2-methoxyethyl)-1,3-oxazolidine-3-carbothioamid]
- mortality at 500 g/ha [3, 6]: ≥ 80%
